How the values were obtained:
MTHFD1^KO cells = test: growth of MTHFD1^KO cells in dialyzed serum media with compound supplementation; assay type: cell-based
Experimental: MTHFD1^KO cells in dialyzed FBS media were treated with a single nucleotide or folic acid metabolite for 72 hours. Cells were then stained with Hoechst, imaged, and counted using an Operetta (Perkin Elmer). For the AMPK activator studies, cells were stained with Hoechst, imaged, and counted using an Opera (Perkin Elmer). Similarly, MTHFD1^K56R cells in dialyzed FBS media were treated with adenosine for 72 hours. Cells were then stained with Hoechst, imaged, and counted using an Operetta (Perkin Elmer).
MTHFD1^KO cells (F5 clone) in dialyzed FBS media were treated with the CeMM compound library (89,228 chemically diverse compounds). Both cell number, using Hoechst staining, and CellTiter-Glo (Promega), an indicator of metabolically active cells, was both used as a readout, depending on the stage of the screen.
Briefly, the screening was divided into the three parts (i) primary screening, (ii) follow-up and (iii) validation. During the primary screen, MTHFD1^KO cells were treated with 10 μM of every compound and CellTiter-Glo (Promega) was used to assess their ability to increase cell growth after 48 hours. From this primary screening, 17 compounds were selected as hits and rescreened in the follow-up part, in which the MTHFD1^KO cells were treated in a six-point dose response for 72 hours to discard any false positives. Finally, in the validation part, MTHFD1^KO cells were treated with 10 compounds in an eight-point dose response curve and the cell numbers were counted by staining with Hoechst, imaging and counting nuclei using the Opera Phenix (Perkin Elmer) and Harmony software (Perkin Elmer).

NUDT5 [1] = target: T1, NUDT5 (Homo sapiens, UniProt Q9UKK9); test: NUDT5 degradation by Western blot in HEK293 cells; assay type: cell-based; set-up: endogenous in cells; host or cells: HEK293 (also CRBN knock-out HEK293 for A13)
Experimental: For Western blots, proteins were separated on polyacrylamide gels with SDS running buffer (50 mM Tris, 380 mM Glycine, 7 mM SDS) and transferred to PVDF membranes. All membranes were then blocked with blocking buffer (5% w/v milk powder, BioRad) in TBST (50 mM Tris (tris(hydroxymethylaminomethane), 150 mM NaCl, 0.05% (v/v) Tween 20, adjusted to pH 7.6) Proteins were probed with antibodies against phospho-AMPK (50081S, 1:2000, Cell Signaling Technologies), AMPK (5832S, 1:2000, Cell Signaling Technologies), PML (ab179466, 1:1000, abeam), PARP8 (NBP213733, 1:1000, Novus Biologicals), ATF2/7 (82870, 1:1000, Cell Signaling Technologies), alpha-Tubulin (ab7291, 1:1000, Abeam), phospho-UBTF (ab182583, 1:1000, abeam), UBTF (HPA006385, 1:1000, Sigma), RBM38 (AV40862, 1:1000, Sigma), or NUDT5 (ab129172, 1:1000, abeam), detected by HRP (horse-radish peroxidase) conjugated donkey anti-rabbit IgG antibody (Pierce) or donkey anti-mouse antibody IgG antibody (Pierce) and visualized with Clarity ECL Western Blotting substrate (BioRad), according to provided protocol.

NUDT14 = target: T2, NUDT14 (Homo sapiens, UniProt O95848); test: AMP-Glo catalytic assay, NUDT14; assay type: biochemical; details: 2 nM NUDT14, ADPr substrate, 1 hour, mean±SD; read-out: NUDT14 IC50
T2 sequence (O95848 1-222): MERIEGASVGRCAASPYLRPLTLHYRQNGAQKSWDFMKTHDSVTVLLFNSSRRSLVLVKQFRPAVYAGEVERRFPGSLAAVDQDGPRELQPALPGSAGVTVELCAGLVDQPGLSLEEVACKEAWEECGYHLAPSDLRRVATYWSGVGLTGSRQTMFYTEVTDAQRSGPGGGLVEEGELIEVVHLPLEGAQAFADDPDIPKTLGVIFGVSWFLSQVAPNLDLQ
Experimental: To identify alternative X groups, a screening exercise was performed. […] Inhibition activities of the compounds were determined using AMP-Glo system (Promega). The compounds were diluted from 50 μM to 0 μM in a final reaction containing 20 mM Hepes, 100 mM NaCl, 0.5 mM TCEP, 1 mM MgCl2 and 0.1% BSA, pH 7.4. The reactions were performed in 1536 well plate in […] reaction volume with 2 nM of NUDT5 and NUDT14, and […] of ADPr as the substrate. The final DMSO concentration was 0.5% for all reactions. NUDT5 reactions were incubated for 20 minutes while NUDT14 reactions were carried out for 1 hour at room temperature. […] The reactions were further incubated with the 4 μl of Detection solution for 1 hour at room temperature. Luminescence signals were then measured in PHERAstar FSX plate reader. Experiments were done in triplicate sets and data were analysed by GraphPad Prism 9. Data are represented as the mean±SD of three biological experiments: […]

NUDT5 [2] = target: T1, NUDT5; test: CRBN knock-out experiment, NUDT5 degradation; assay type: cell-based; set-up: endogenous in cells; host or cells: HEK293 (also CRBN knock-out HEK293 for A13); details: CRBN knock-out HEK293 cells, 20 h

Q: For `Nc1ncnc2c1ncn2[C@@H]1O[C@H](COP(=O)(O)O)[C@@H](O)[C@H]1O` [AMP], which “rescue of growth in dialyzed serum” value (MTHFD1^KO cells) is on record?
A: able to rescue the growth

Q: For `Cn1c(=O)c2c(nc(N3CCN(C(=O)CCOCCOCCNc4cccc5c4C(=O)N(C4CCC(=O)NC4=O)C5=O)CC3)n2Cc2nnc(-c3ccc(Cl)c(Cl)c3)o2)n(C)c1=O` (centres unmarked) [Compound 068, 7-((5-(3,4-dichlorophenyl)-1,3,4-oxadiazol-2-yl)methyl)-8-(4-(3-(2-(2-((2-(2,6-dioxopiperidin-3-yl)-1,3-dioxoisoindolin-4-yl)amino)ethoxy)ethoxy)propanoyl)piperazin-1-yl)-1,3-dimethyl-3,7-dihydro-1H-purine-2,6-dione], which “NUDT5 degradation at 100 nM, 20 h (%)” value (NUDT5 [1]) is on record?
A: 52%

Q: What about the Dmax (NUDT5 [1]; HEK293, NUDT5 degradation) of the same compound?
A: 50%

Q: With `NC(=O)c1ccc[n+]([C@@H]2O[C@H](COP(=O)([O-])OP(=O)(O)OC[C@H]3O[C@@H](n4cnc5c(N)ncnc54)[C@H](O)[C@@H]3O)[C@@H](O)[C@H]2O)c1` [NAD] as the compound, how does the “rescue of growth in dialyzed serum” value (MTHFD1^KO cells) read?
A: able to rescue the growth

Q: For `O=c1[nH]cnc2nc[nH]c12` [hypoxanthine], which “rescue of growth in dialyzed serum” value (MTHFD1^KO cells) is on record?
A: able to rescue the growth

Q: For `Cn1nc(-c2ccc(Oc3ccccc3)cc2)c2c(N)ncnc21` [Compound 2], which IC50 (NUDT14) is on record?
A: 604 ± 116 nM

Q: With `Cn1c(=O)c2c(nc(N3CCN(C(=O)CCOCCOCCOCCNc4cccc5c4C(=O)N(C4CCC(=O)NC4=O)C5=O)CC3)n2Cc2nnc(-c3ccc(Cl)c(Cl)c3)o2)n(C)c1=O` (centres unmarked) [Compound 127, 7-((5-(3,4-dichlorophenyl)-1,3,4-oxadiazol-2-yl)methyl)-8-(4-(3-(2-(2-(2-((2-(2,6-dioxopiperidin-3-yl)-1,3-dioxoisoindolin-4-yl)amino)ethoxy)ethoxy)ethoxy)propanoyl)piperazin-1-yl)-1,3-dimethyl-3,7-dihydro-1H-purine-2,6-dione] as the compound, how does the “dependence of degradation on E3 ligase” value (NUDT5 [2]) read?
A: E3-ligase-dependant

Q: And the “NUDT5 degradation at 100 nM, 20 h (%)” value (NUDT5 [1])?
A: 76%

Q: For `Nc1ncnc2[nH]nc(-c3ccc(Oc4ccccc4)cc3)c12` [Compound 3], which IC50 (NUDT14) is on record?
A: 548 ± 37 nM

Q: With `Cn1c(=O)c2c(nc(N3CCN(CCC4CCN(c5ccc6c(c5)C(=O)N(C5CCC(=O)NC5=O)C6=O)CC4)CC3)n2Cc2nnc(-c3ccc(Cl)c(Cl)c3)o2)n(C)c1=O` (centres unmarked) [Compound 102, 7-((5-(3,4-dichlorophenyl)-1,3,4-oxadiazol-2-yl)methyl)-8-(4-(2-(1-(2-(2,6-dioxopiperidin-3-yl)-1,3-dioxoisoindolin-5-yl)piperidin-4-yl)ethyl)piperazin-1-yl)-1,3-dimethyl-3,7-dihydro-1H-purine-2,6-dione] as the compound, how does the “NUDT5 degradation at 100 nM, 20 h (%)” value (NUDT5 [1]) read?
A: 46%

Q: Which “rescue of growth in dialyzed serum” value (MTHFD1^KO cells) does the source give for `Cc1cc2nc3c(=O)[nH]c(=O)nc-3n(C[C@H](O)[C@H](O)[C@H](O)COP(=O)(O)OP(=O)(O)OC[C@H]3O[C@@H](n4cnc5c(N)ncnc54)[C@H](O)[C@@H]3O)c2cc1C` [FAD] here?
A: able to rescue the growth

Q: How did the “rescue of growth in dialyzed serum” value (MTHFD1^KO cells) turn out when `NC(=O)C1=CN([C@@H]2O[C@H](COP(=O)(O)OP(=O)(O)OC[C@H]3O[C@@H](n4cnc5c(N)ncnc54)[C@H](O)[C@@H]3O)[C@@H](O)[C@H]2O)C=CC1` [NADH] was run?
A: able to rescue the growth

Q: With `CN1CCC(n2nc(-c3ccc(NC(=O)CCl)cc3)c3c(N)ncnc32)CC1` [Compound 8] as the compound, how does the IC50 (NUDT14) read?
A: 377 ± 35 nM

Q: Which IC50 (NUDT14) does the source give for `C=CC(=O)N1CCC=C(c2nn(C3CCN(C)CC3)c3ncnc(N)c23)C1` [Compound 5] here?
A: 4270 ± 133 nM

Q: For `Cn1c(=O)c2c(nc(N3CCN(C(=O)CCOCCOCCOCCOCCNc4cccc5c4C(=O)N(C4CCC(=O)NC4=O)C5=O)CC3)n2Cc2nnc(-c3ccc(Cl)c(Cl)c3)o2)n(C)c1=O` (centres unmarked) [Compound 130, 7-((5-(3,4-dichlorophenyl)-1,3,4-oxadiazol-2-yl)methyl)-8-(4-(1-((2-(2,6-dioxopiperidin-3-yl)-1,3-dioxoisoindolin-4-yl)amino)-3,6,9,12-tetraoxapentadecan-15-oyl)piperazin-1-yl)-1,3-dimethyl-3,7-dihydro-1H-purine-2,6-dione], which “dependence of degradation on E3 ligase” value (NUDT5 [2]) is on record?
A: E3-ligase-dependant

Q: And the “NUDT5 degradation at 100 nM, 20 h (%)” value (NUDT5 [1])?
A: 81%

Q: How did the “rescue of growth in dialyzed serum” value (MTHFD1^KO cells) turn out when `C[S+](CC[C@H](N)C(=O)[O-])C[C@H]1O[C@@H](n2cnc3c(N)ncnc32)[C@H](O)[C@@H]1O` (some centres unmarked) [SAM] was run?
A: able to rescue the growth

— patent US20260200923A1, “HETEROCYCLIC COMPOUNDS TARGETING THE NUDT5 PROTEIN” (Oxford University Innovation Limited, priority 2022, published 2026)
